# Experimental data taken from US20260317324A1, “BIFUNCTIONAL COMPOUNDS FOR DEGRADING BRAF VIA UBIQUITIN PROTEOSOME PATHWAY” (Nurix Therapeutics, Inc., priority 2023, published 2026).
# Key:
# Assay type in all cases: cell-based
# BRAF V600E = target: T1, BRAF V600E (Homo sapiens, UniProt P15056, V600E); experiment: BRAF HiBiT degradation assay, C-terminal HiBiT-tagged BRAF V600E A375 cells (clone 1F10), Nano-Glo HiBiT Lytic assay; settings: for Dmax: A-375
# T1 construct: endogenous C-terminal HiBiT fusion tag on BRAF V600E allele; endogenous in cells; host or cells: A375 clone 1F10 (CRISPR-Cas9 knock-in of the HiBiT tag; parental A375 from ATCC)
# How it was run: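 Luminescence read-out: Nano-Glo HiBiT lytic reagent with LgBiT, 10 min at room temperature. Signal normalised to DMSO-treated tagged cells, with wildtype A375 as background. Cells are endogenously tagged BRAF V600E A375 clone 1F10. Compounds were tested from 1 μM to 0.01 nM; Dmax is observed % degraded at maximal effect.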
# BRAF G469A = target: T2, BRAF G469A (Homo sapiens, UniProt P15056, G469A); experiment: BRAF HiBiT degradation assay, C-terminal HiBiT-tagged BRAF G469A overexpressed in HCT-116 BRAF−/− cells (clone 34), Nano-Glo HiBiT Lytic assay
# T2 construct: Horizon Discovery (HCT-116 BRAF−/− cells); host or cells: HCT-116 BRAF−/− cells, clone 34, lentiviral transduction
# How it was run: (§1)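 Cells 3,000/well, 24 h at 37 °C; cpds 1 μM–0.01 nM, 11-pt half-log, duplicate, 0.2% DMSO. Readout: HiBiT lytic luminescence, 10 min at RT. Normalized to DMSO-treated tagged cells, with DMSO-treated wild-type HCT-116 as background. DC50 = fitted concentration at Y=50; Obs. Dmax = % degraded at maximal effect.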
# BRAF G466V = target: T3, BRAF G466V (Homo sapiens, UniProt P15056, G466V); experiment: BRAF HiBiT degradation assay, C-terminal HiBiT-tagged BRAF G466V overexpressed in HCT-116 BRAF−/− cells (clone 8), Nano-Glo HiBiT Lytic assay
# T3 construct: Horizon Discovery (HCT-116 BRAF−/− cells); host or cells: HCT-116 BRAF−/− cells, clone 8, lentiviral transduction
# How it was run: as §1
# BRAF D594G = target: T4, BRAF D594G (Homo sapiens, UniProt P15056, D594G); experiment: BRAF HiBiT degradation assay, C-terminal HiBiT-tagged BRAF D594G overexpressed in HCT-116 BRAF−/− cells (clone 63), Nano-Glo HiBiT Lytic assay
# T4 construct: Horizon Discovery (HCT-116 BRAF−/− cells); host or cells: HCT-116 BRAF−/− cells, clone 63, lentiviral transduction
# How it was run: as §1
# [1] = A375 (BRAF V600E), DC50 at 50%: fitted conc. at Y=50
# [2] = A375 (BRAF V600E), percentage protein degraded at maximal compound effect relative to DMSO
# [3] = Class 2, BRAF G469A, DC50 at 50%: fitted conc. at Y=50
# [4] = HCT-116, Class 2, BRAF G469A, percentage protein degraded at maximal compound effect relative to DMSO
# [5] = BRAF G466V, DC50 at 50%: fitted conc. at Y=50
# [6] = HCT-116, BRAF G466V, percentage protein degraded at maximal compound effect relative to DMSO
# [7] = BRAF D594G, DC50 at 50%: fitted conc. at Y=50
# [8] = HCT-116, BRAF D594G, percentage protein degraded at maximal compound effect relative to DMSO
# [9] = A375 (BRAF V600E, Class 1), DC50 at 50% degradation
# [10] = A375 (BRAF V600E, Class 1), observed Dmax, % protein degraded relative to DMSO control
# [11] = BRAF G469A (Class 2), HCT-116 BRAF−/− cells, DC50 at 50% degradation
# [12] = BRAF G469A (Class 2), HCT-116 BRAF−/− cells, observed Dmax relative to DMSO control
# [13] = BRAF G466V (Class 3), HCT-116 BRAF−/− cells, DC50 at 50% degradation
# [14] = BRAF G466V (Class 3), HCT-116 BRAF−/− cells, observed Dmax relative to DMSO control
# [15] = BRAF D594G (Class 3), HCT-116 BRAF−/− cells, DC50 at 50% degradation
# [16] = BRAF D594G (Class 3), HCT-116 BRAF−/− cells, observed Dmax relative to DMSO control
# T4 sequence (P15056 whole entry D594G): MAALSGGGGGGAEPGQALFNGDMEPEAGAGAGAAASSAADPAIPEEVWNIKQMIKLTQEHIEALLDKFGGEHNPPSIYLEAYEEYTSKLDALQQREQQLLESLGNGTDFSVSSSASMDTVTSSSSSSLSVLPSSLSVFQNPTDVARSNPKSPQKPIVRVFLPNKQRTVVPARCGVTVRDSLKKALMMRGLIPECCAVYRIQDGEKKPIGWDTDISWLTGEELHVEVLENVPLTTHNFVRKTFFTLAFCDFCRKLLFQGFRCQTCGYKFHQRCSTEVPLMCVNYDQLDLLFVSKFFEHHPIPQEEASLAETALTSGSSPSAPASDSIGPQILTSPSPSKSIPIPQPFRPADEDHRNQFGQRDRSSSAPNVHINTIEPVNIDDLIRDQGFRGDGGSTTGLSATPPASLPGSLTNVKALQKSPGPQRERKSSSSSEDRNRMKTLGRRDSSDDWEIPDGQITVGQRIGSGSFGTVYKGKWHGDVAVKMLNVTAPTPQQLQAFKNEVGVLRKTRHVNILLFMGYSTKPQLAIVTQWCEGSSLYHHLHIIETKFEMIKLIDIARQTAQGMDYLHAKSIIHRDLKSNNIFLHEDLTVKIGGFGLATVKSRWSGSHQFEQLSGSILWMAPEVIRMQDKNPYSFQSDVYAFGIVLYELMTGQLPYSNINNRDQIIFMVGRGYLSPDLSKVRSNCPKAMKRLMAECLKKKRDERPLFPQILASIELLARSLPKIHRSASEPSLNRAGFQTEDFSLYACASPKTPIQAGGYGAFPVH
# T3 sequence (P15056 whole entry G466V): as the sequence (P15056 whole entry D594G) above, with G466V, G594D counted along it
# T1 sequence (P15056 whole entry V600E, the tested form may be a part): as the sequence (P15056 whole entry D594G) above, with G594D, V600E counted along it
# T2 sequence (P15056 whole entry G469A): as the sequence (P15056 whole entry D594G) above, with G469A, G594D counted along it
Structure (SMILES),DC50 (BRAF V600E; [1]),Dmax (BRAF V600E; [2]),DC50 (BRAF G469A; [3]),Dmax (BRAF G469A; [4]),DC50 (BRAF G466V; [5]),Dmax (BRAF G466V; [6]),DC50 (BRAF D594G; [7]),Dmax (BRAF D594G; [8]),DC50 (BRAF V600E; [9]),Dmax (BRAF V600E; [10]),DC50 (BRAF G469A; [11]),Dmax (BRAF G469A; [12]),DC50 (BRAF G466V; [13]),Dmax (BRAF G466V; [14]),DC50 (BRAF D594G; [15]),Dmax (BRAF D594G; [16])
"CCC(C)S(=O)(=O)Nc1cc(Cl)cc(-c2cn(-c3ccc(N4CCN(CC5CCN(c6ccc(N7CCC(=O)NC7=O)cc6)CC5)CC4)cc3)nc2-c2ccncc2)c1F (racemic) [Compound 328, Rac-(2R)—N-[5-chloro-3-(1-{4-[4-({1-[4-(2,4-dioxo-1,3-diazinan-1-yl)phenyl]piperidin-4-yl}methyl)piperazin-1-yl]phenyl}-3-(pyridin-4-yl)-1H-pyrazol-4-yl)-2-fluorophenyl]butane-2-sulfonamide]",–,–,–,–,–,–,–,–,< 10 nM,> 70%,50 to 500 nM,30 to 70%,10 to 50 nM,> 70%,< 10 nM,30 to 70%
"O=C1CCN(c2ccc(N3CCC(CN4CCN(c5ccc(-n6cc(-c7cc(F)cc(NS(=O)(=O)N8CCCC8)c7F)c(-c7ccncc7)n6)cc5)CC4)CC3)cc2)C(=O)N1 [Compound 300, N-[3-(1-{4-[4-({1-[4-(2,4-dioxo-1,3-diazinan-1-yl)phenyl]piperidin-4-yl}methyl)piperazin-1-yl]phenyl}-3-(pyridin-4-yl)-1H-pyrazol-4-yl)-2,5-difluorophenyl]pyrrolidine-1-sulfonamide]",–,–,–,–,–,–,–,–,10 to 50 nM,> 70%,50 to 500 nM,30 to 70%,< 10 nM,> 70%,< 10 nM,30 to 70%
"C[C@@H]1CN(c2ccc(-n3cc(-c4cc(Cl)cc(NS(=O)(=O)N5CCCC5)c4F)c(-c4ccncc4)n3)cc2)CCN1CC1CCN(c2ccc(C3CCC(=O)NC3=O)cn2)CC1 (mixture of isomers) [Compound 268, N-(5-chloro-3-(1-(4-((R)-4-((1-(5-((RS)-2,6-dioxopiperidin-3-yl)pyridin-2-yl)piperidin-4-yl)methyl)-3-methylpiperazin-1-yl)phenyl)-3-(pyridin-4-yl)-1H-pyrazol-4-yl)-2-fluorophenyl)pyrrolidine-1-sulfonamide]",–,–,–,–,–,–,–,–,< 10 nM,> 70%,< 10 nM,> 70%,< 10 nM,> 70%,< 10 nM,> 70%
"O=C1CC[C@H](c2ccc(N3CCC(CN4CCN(c5ccc(-n6cc(-c7cc(Cl)cc(NS(=O)(=O)N8CCCC8)c7F)c(-c7ccncc7)n6)nc5)CC4)CC3)nc2)C(=O)N1 [Compound 290, N-{5-chloro-3-[1-(5-{4-[(1-{5-[(3R)-2,6-dioxopiperidin-3-yl]pyridin-2-yl}piperidin-4-yl)methyl]piperazin-1-yl}pyridin-2-yl)-3-(pyridin-4-yl)-1H-pyrazol-4-yl]-2-fluorophenyl}pyrrolidine-1-sulfonamide]",–,–,–,–,–,–,–,–,< 10 nM,> 70%,< 10 nM,> 70%,< 10 nM,> 70%,< 10 nM,> 70%
"C[C@@H]1CN(c2ccc(-n3cc(-c4cc(Cl)cc(NS(=O)(=O)N5CC[C@@H](F)C5)c4F)c(-c4ccncc4)n3)nc2)CCN1CC1CCN(c2ccc(N3CCC(=O)NC3=O)cc2)CC1 [Compound 322, (3R)—N-[5-chloro-3-(1-{5-[(3R)-4-({1-[4-(2,4-dioxo-1,3-diazinan-1-yl)phenyl]piperidin-4-yl}methyl)-3-methylpiperazin-1-yl]pyridin-2-yl}-3-(pyridin-4-yl)-1H-pyrazol-4-yl)-2-fluorophenyl]-3-fluoropyrrolidine-1-sulfonamide]",–,–,–,–,–,–,–,–,< 10 nM,> 70%,50 to 500 nM,30 to 70%,< 10 nM,30 to 70%,< 10 nM,30 to 70%
"O=C1CC[C@H](c2ccc(N3CCC(CN4CCN(c5ccc(-n6cc(-c7cc(F)cc(NS(=O)(=O)N8CC[C@@H](F)C8)c7F)c(-c7ccncc7)n6)nc5)CC4)CC3)cc2)C(=O)N1 [Compound 302, (3R)—N-{3-[1-(5-{4-[(1-{4-[(3R)-2,6-dioxopiperidin-3-yl]phenyl}piperidin-4-yl)methyl]piperazin-1-yl}pyridin-2-yl)-3-(pyridin-4-yl)-1H-pyrazol-4-yl]-2,5-difluorophenyl}-3-fluoropyrrolidine-1-sulfonamide]",–,–,–,–,–,–,–,–,< 10 nM,> 70%,10 to 50 nM,30 to 70%,< 10 nM,> 70%,< 10 nM,> 70%

# The next lines start with the values.
DC50 (BRAF V600E; [1]),Dmax (BRAF V600E; [2]),DC50 (BRAF G469A; [3]),Dmax (BRAF G469A; [4]),DC50 (BRAF G466V; [5]),Dmax (BRAF G466V; [6]),DC50 (BRAF D594G; [7]),Dmax (BRAF D594G; [8]),DC50 (BRAF V600E; [9]),Dmax (BRAF V600E; [10]),DC50 (BRAF G469A; [11]),Dmax (BRAF G469A; [12]),DC50 (BRAF G466V; [13]),Dmax (BRAF G466V; [14]),DC50 (BRAF D594G; [15]),Dmax (BRAF D594G; [16]),Structure (SMILES)
< 10 nM,> 70%,> 500 nM,30 to 70%,> 500 nM,30 to 70%,> 500 nM,30 to 70%,–,–,–,–,–,–,–,–,"CCCS(=O)(=O)Nc1cccc(-c2nc(C3CCC4(CC3)CCN(C(=O)CCCCCc3ccc5c(c3)C(=O)N(C3CCC(=O)NC3=O)C5)CC4)sc2-c2ccnc(N)n2)c1F (racemic) [Compound 235, Rac-N-{3-[5-(2-aminopyrimidin-4-yl)-2-[3-(6-{2-[(3R)-2,6-dioxopiperidin-3-yl]-3-oxo-2,3-dihydro-1H-isoindol-5-yl}hexanoyl)-3-azaspiro[5.5]undecan-9-yl]-1,3-thiazol-4-yl]-2-fluorophenyl}propane-1-sulfonamide]"
10 to 50 nM,30 to 70%,> 500 nM,30 to 70%,> 500 nM,30 to 70%,> 500 nM,30 to 70%,–,–,–,–,–,–,–,–,"CCCS(=O)(=O)Nc1cccc(-c2nc(C(C)(C)C)sc2-c2ccnc(Nc3ccc(C4CCN(CC5CCN(c6ccc(C7CCC(=O)NC7=O)cc6)CC5)CC4)cc3)n2)c1F (racemic) [Compound 167, Rac-N-[3-(2-tert-butyl-5-{2-[(4-{1-[(1-{4-[(3R)-2,6-dioxopiperidin-3-yl]phenyl}piperidin-4-yl)methyl]piperidin-4-yl}phenyl)amino]pyrimidin-4-yl}-1,3-thiazol-4-yl)-2-fluorophenyl]propane-1-sulfonamide]"
–,–,–,–,–,–,–,–,< 10 nM,> 70%,> 500 nM,30 to 70%,< 10 nM,> 70%,50 to 500 nM,30 to 70%,"CCCS(=O)(=O)Nc1cc(Cl)cc(-c2cn(-c3ccc(N4CCN(CC5CCN(c6ccc([C@H]7CCC(=O)NC7=O)cc6)CC5)[C@@H](C)C4)cc3)nc2-c2ccncc2)c1F [Compound 278, N-[5-chloro-3-(1-{4-[(3S)-4-[(1-{4-[(3R)-2,6-dioxopiperidin-3-yl]phenyl}piperidin-4-yl)methyl]-3-methylpiperazin-1-yl]phenyl}-3-(pyridin-4-yl)-1H-pyrazol-4-yl)-2-fluorophenyl]propane-1-sulfonamide]"
10 to 50 nM,> 70%,> 500 nM,< 30%,> 500 nM,30 to 70%,> 500 nM,30 to 70%,–,–,–,–,–,–,–,–,"CCCS(=O)(=O)Nc1cccc(-c2nc(C3CCN(CC4CCN(C[C@H]5CC[C@H](Oc6ccc(C7CCC(=O)NC7=O)cc6)CC5)CC4)CC3)sc2-c2ccnc(N)n2)c1F (mixture of isomers) [Compound 225, N-{3-[5-(2-aminopyrimidin-4-yl)-2-{1-[(1-{[(1r,4r)-4-{4-[(3RS)-2,6-dioxopiperidin-3-yl]phenoxy}cyclohexyl]methyl}piperidin-4-yl)methyl]piperidin-4-yl}-1,3-thiazol-4-yl]-2-fluorophenyl}propane-1-sulfonamide]"
50 to 500 nM,30 to 70%,> 500 nM,30 to 70%,< 10 nM,30 to 70%,> 500 nM,30 to 70%,–,–,–,–,–,–,–,–,"CCCS(=O)(=O)Nc1cccc(-c2nc(C(C)(C)C)sc2-c2ccnc(NCC(C)(C)C3CCN(CC4CCN(c5ccc(C(=O)N[C@H]6CCC(=O)NC6=O)nc5)CC4)CC3)n2)c1F [Compound 146, 5-{4-[(4-{1-[(4-{2-tert-butyl-4-[2-fluoro-3-(propane-1-sulfonamido)phenyl]-1,3-thiazol-5-yl}pyrimidin-2-yl)amino]-2-methylpropan-2-yl}piperidin-1-yl)methyl]piperidin-1-yl}-N-[(3S)-2,6-dioxopiperidin-3-yl]pyridine-2-carboxamide]"
